As usually defined, the IC50 is the concentration needed to halve the response being measured. The LD50 is the dose at which mortality reaches 50%.

For one data set, the target named is T1, Dopamine D2 receptor (Rattus norvegicus, UniProt P61169).
T1 construct: membrane fraction prepared from the striatum of Wistar male rats; from tissue; host or cells: rat striatum membrane fraction
Put plainly: Dopamine D2 receptor blocking action ([^3H] raclopride, striatum membrane fraction). It is filed as binding, Wistar male rats. As to conditions: 1.0 nM [^3H] raclopride, 25° C., 1 hour. How it is done: Dopamine D2 Receptor Blocking Action
57 μl of the membrane fraction prepared from the striatum of Wistar male rats (6 weeks old) was incubated together with the compound and 1.0 nM [^3H] raclopride in a buffer at 25° C. for 1 hour. A GF/C glass filter (0.1% polyethylene imine treatment) was used for B/F separation. A beta plate was used for measurement of the radioactivity to evaluate the effect of the compound.

The subject of another data set is DBA/2N type mice. Put plainly: Audiogenic seizure suppressing effect. It is filed as in vivo. The settings on record: Mus musculus, ip, 20 min, compound 10 mg/kg, i.p.; audio stimulus after 20 minutes; seizure score; read-out: Antiseizure effect (suppression rate %). The protocol:
Audiogenic Seizure Suppressing Effect
The audiogenic seizure suppressing effect of the compounds was evaluated by the method of Sarro et al. [G. B. De Sarro et al., Br. J. Pharmacol., 93, 247 (1988)]. That is, the compound dissolved in 10% 2-hydroxypropyl-β-cyclodextrin was administered intraperitoneally to DBA/2N type mice (male, 3 weeks old). After 20 minutes, a supersonic washer was used to apply audio stimulus of at least 90 dB for 1 minute. The wild running (WR), clonic seizures (clonus), tonic seizures (tonus), and the respiratory arrest (RA) were observed. The seizure suppressing effect was evaluated from the rate of suppression of the average value of the seizure score found as 0=no response, 1=WR, 2=clonus, 3=tonus, and 4=RA.

A further data set concerns lipid peroxidation. The data set is described as follows: Lipid peroxidation suppressing effect (brain membrane preparation, malonaldehyde and 4-hydroxyalkenals). The settings on record: rat brain membrane preparation, 37° C., 30 minutes. Format: biochemical, Wistar rats. How it is done:
Lipid Peroxidation Suppressing Effect
The whole brains of Wistar rats (10 weeks old, male) were excised and homogenized in the 10 times volumes of 50 mM phosphate-buffered solution (pH=7.4) (hereinafter referred to as PBS). The centrifuged supernatent was further diluted fourfold and the result was used as the brain membrane preparation. The membrane preparation was incubated in the presence of vehicle (0.5% DMSO) or compound at 37° C. for 30 minutes and an automatic oxidation reaction promoted. The reaction was stopped by 35% perchloric acid, then the total of the main decomposition products of the peroxidized lipids present in the centrifuged supernatent, that is, malonaldehyde and 4-hydroxyalkenals, was measured using a BIOXYTECH®/LPO-586™ peroxidized lipid colorimetric assay kit (OXIS International, Inc.) and used as an indicator of the lipid peroxidation.

The next data set has as its system Sodium channel. Put plainly: Inhibitory effect of veratrizine-induced sodium channel activity (synaptozome membrane potential, Rhodamine 6G). Format: biochemical, Wistar rats. The settings on record: compound 0.1 μM; rat brain synaptozomes, veratrizine-induced depolarization. From the text:
Inhibitory Effect of Veratrizine-induced Sodium Channel Activity

Another data set concerns T-type Ca^2+ channel. The data set is described as follows: T-type calcium channel inhibitory effect (whole-cell patch clamp, hippocampal CA1 pyramidal cells). Format: cell-based, Wistar rats. As to conditions: rat hippocampal CA1 pyramidal cells; peak current after 1 minute of application. How it is done: T-Type Calcium Channel Inhibitory Effect
The hippocampal CA1 pyramidal cells were isolated from Wistar rats (female, 1 week old) in according to the method reported by Takahashi et al. [K. Takahashi et al.; J. Pharmacol. Exp. Ther., 256, 169 (1991)] and the T-type calcium current was measured under conditions of a fixed membrane potential using the whole-cell configuration of the patch clamp technique. The effects of the compounds were evaluated from the rate of suppression of the peak current after 1 minute of application using the concentration clamp method.
For orientation: In patch-clamp work, channel activity is measured electrically.

Another data set is described as follows: Acute toxicity test. The settings on record: male, mouse, in vivo, iv, ddY mice, death rate up to 24 hours after administration. How it is done: A pharmaceutical preparation was administered intravenously to ddY mice (male, 6 weeks old). The 50% lethal dosage LD50 of the acute toxicity was calculated by an ordinary method from the death rate up to 24 hours after administration.

Molecules are shown by their SMILES.

T1 sequence (P61169 whole entry): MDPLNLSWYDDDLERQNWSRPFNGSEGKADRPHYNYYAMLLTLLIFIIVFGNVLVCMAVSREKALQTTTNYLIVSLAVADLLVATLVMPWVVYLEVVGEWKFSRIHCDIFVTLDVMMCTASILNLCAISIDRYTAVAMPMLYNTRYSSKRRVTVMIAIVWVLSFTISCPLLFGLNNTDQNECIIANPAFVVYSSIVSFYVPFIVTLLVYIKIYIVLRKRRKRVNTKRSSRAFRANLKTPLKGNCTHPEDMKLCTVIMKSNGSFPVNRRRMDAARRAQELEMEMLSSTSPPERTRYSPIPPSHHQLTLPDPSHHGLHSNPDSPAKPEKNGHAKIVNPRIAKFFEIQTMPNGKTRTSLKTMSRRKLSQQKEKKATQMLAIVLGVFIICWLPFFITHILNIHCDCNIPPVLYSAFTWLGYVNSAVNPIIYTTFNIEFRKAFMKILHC

`Cc1cc(OC[C@@H](O)CN2CCC(c3ccc(Cc4ccc(F)cc4)cc3)CC2)c(C)c(C)c1N` [Compound 27, (2S)-1-[(4-amino-2,3,5-trimethyl)phenoxy]-3-[4-(4-(4-fluorophenyl)methylphenyl)piperidin-1-yl]-2-propanol]: the half-inhibitory concentration (IC50) against Dopamine D2 receptor is 6.3 µM; in the data set with lipid peroxidation, 0.46 µM. Also, the inhibition in vivo at 10 mg/kg with DBA/2N type mice was found to be 55%. Moreover, the “Anti-veratrizine effect (inhibiting rate %)” value in the data set on Sodium channel is listed as 32.1%.
With `COc1ccc(N)cc1OC[C@@H](O)CN1CCC(c2ccc(Oc3ccccc3)cc2)CC1` [Compound 41, (2S)-1-[(5-amino-2-methoxy)phenoxy]-3-[4-(4-phenoxyphenyl)piperidin-1-yl]-2-propanol], the half-maximal inhibitory concentration (IC50) against Dopamine D2 receptor was 11 µM; in the data set with T-type Ca^2+ channel it was 4 µM; in the data set on lipid peroxidation, 0.87 µM. The inhibition in vivo at 10 mg/kg in the data set with DBA/2N type mice was found to be 60%. In addition, the “Anti-veratrizine effect (inhibiting rate %)” value in the data set with Sodium channel is reported as 22.1%. For the same compound, in the data set “Acute toxicity test”, the LD50 at 24 h was 36.7 mg/kg.

The values above are taken from US6407099B1, “Arylpiperidinopropanol and arylpiperazinopropanol derivatives and pharmaceuticals containing the same” (Suntory Limited, priority 1997, dated 2002).
